Values of other authors in PMC8604667 (International Journal of Pharmaceutics: X, 2021).

Legend:
[1] = ref Venditto and Simanek, 2010
P-glycoprotein = conditions: ref Takemoto et al., 2006; Negi et al., 2013

CC[C@@]1(O)C(=O)OCc2c1cc1n(c2=O)Cc2cc3ccccc3nc2-1 [camptothecin, Camptothecin]
pH at which lactone and carboxylate forms co-exist at 50% [1]: 6.65 | P-glycoprotein substrate (P-glycoprotein): P-glycoprotein substrate
